Reference: patent US20200316021A1, “Dosing Regimen of Siponimod” (NOVARTIS AG, priority 2017, published 2020)

Legend:
[1] = siponimod single dose study (SAD study) in healthy volunteers; format: in vivo; conditions: healthy subjects
[2] = system: Absolute Lymphocyte Count (ALC); experiment: multiple ascending dosing study (MAD study) in healthy subjects: decline of Absolute Lymphocyte Count; format: in vivo, human; conditions: 0.3 mg to 10 mg dose
Experimental: (§1) In another study in healthy subjects siponimod was administered in multiple doses, i.e. 0.3, 1, 2.5, 10 and 20 mg, over 28 days (multiple ascending dosing study, MAD study).
Amongst the various potential factors which may contribute to the reduction of inflammation, and which may therefore contribute to the efficacy of a treatment by siponimod, one important factor is the reduction of the Absolute Lymphocyte Count (ALC), being ALC known to play an important role in the inflammatory processes, including those in the brain. The exact mechanism by which an S1P receptor modulation may mitigate stroke pathophysiology is/still not fully elucidated and thus, besides the Absolute Lymphocyte Count related effect (ALC-related effect), other potential mechanisms may play a role.

[3] = multiple ascending dosing study (MAD study) in healthy subjects: adverse events; format: in vivo, human; conditions: 20 mg multiple dose over 28 days
Experimental: as §1

[4] = multiple-dose titration clinical study in healthy subjects: daily chronotropic effects (heart rate); format: in vivo, human
Experimental: S1P receptor modulators, as mentioned above, are known to cause dose dependent transient decrease in heart rate within 2-3 hours of drug intake (Legangneux et al 2012, Hoch et al 2014). In order to evaluate on how to best mitigate the bradyarrhythmic risk of siponimod, a multiple-dose titration clinical study in healthy subjects was run.
The primary objective of this study was to measure the daily chronotropic effects of two siponimod dose-titration regimens (from 0.25 mg to 10 mg; Dose Titration (DT) 1# and 2#, respectively) compared to daily chronotropic effects of oral siponimod 10 mg (fixed dose, once daily) and placebo over 12 days. The heart rate (HR) changes have been compared between subjects exposed to 10 mg siponimod once daily (QD) with or without 2 different up-titration schemes. The titration scheme of this study was: • DT 1#: Day 1: 0.25 mg; Day 2: 0.25 mg; Day 3: 0.25 mg; Day 4: 0.5 mg; Day 5: 1.0 mg; Day 6: 2.0 mg; Day 7: 4.0 mg; Day 8: 8.0 mg and from Day 9 to Day 12: 10.0 mg daily. • DT 2#: Day 1: 0.25 mg; Day 2: 0.25 mg; Day 3: 0.5 mg; Day 4: 0.75 mg; Day 5: 1.25 mg; Day 6: 2.0 mg; Day 7: 3.0 mg; Day 8: 5.0 mg; from Day 9 to Day 12: 10.0 mg daily.
This effect was maintained until end of treatment on Day 12. […] It was then concluded that both titration regimens effectively attenuated the initial bradycardia observed on Day 1 of treatment with siponimod 10 mg daily fixed-dose.

[5] = phase II dose finding study in relapsing-remitting multiple sclerosis (CBAF312A2201), MRI brain lesion parameters; format: in vivo, human; conditions: RRMS patients
Experimental: In a phase II dose finding study of siponimod in patients with relapsing-remitting multiple sclerosis (CBAF312A2201) safety, tolerability and efficacy on magnetic resonance imaging (MRI) brain lesion parameters were evaluated. The dose response curve for the MRI-based efficacy of siponimod given orally once daily compared with placebo was determined.
The dose-response curve as defined by the primary endpoint, favored the upper part of this range, i.e. a dose in the range of siponimod 2 mg, since efficacy seemed to decrease with lower doses. Siponimod achieved positive results in a clinical trial for the treatment of RRMS patients (Selmaj et al., Lancet Neurol, 2013, 12, 756-767) and is currently being investigated in an ongoing phase III study (EXPAND) in patients with SPMS. The dose of 2 mg of siponimod was the chosen dose for this follow up phase III study.

[6] = i.v. versus oral siponimod study in healthy subjects (absolute bioavailability): pharmacokinetics; format: in vivo, human
Experimental: (§2) A comparison of bradyarrhythmic effects (H R, AVB, SP) of a 1 mg oral dose from previous studies and a 1 mg/day i.v. dose infused over 24 h in healthy subjects supported the hypothesis that such effects are related to the slope of the concentration-time curve.
In said study with siponimod administered intravenously, PK and PD were determined. […] This finding was consistent with previous oral administrations of 0.25 mg (starting dose of the oral initial period dosing regimen). The results of this clinical study were the following:
(§3) The safety of the i.v. route in humans was supported by a local tolerance study in rabbit and cardiovascular safety studies in guinea pig, rat and rabbit using i.v. (bolus) route.

[7] = system: Absolute Lymphocyte Count (ALC); experiment: i.v. versus oral siponimod study in healthy subjects: PD (ALC) effects; format: in vivo, human; conditions: i.v. 0.25 mg over 3 hour and 1 mg over 24 hours vs oral doses at same dose levels
Experimental: (§4) In said study with siponimod administered intravenously, PK and PD were determined. […] This finding was consistent with previous oral administrations of 0.25 mg (starting dose of the oral initial period dosing regimen).

[8] = i.v. siponimod study in healthy subjects: cardiac safety; format: in vivo, human; conditions: i.v. 0.25 mg over 3 hours and 1 mg over 24 hours (4x0.25 mg/6 hours)
Experimental: as §2, §4

[9] = clinical study of siponimod pharmacokinetics in CYP2C9 poor metabolizers; format: in vivo, human; conditions: for AUC compared with reference AUC of extensive metabolizers (CYP2C9*1*1): poor metabolizers
Description: In addition to the previously described benefits, the dosing regimen of the present disclosure has also the advantage to highly reduce the additional risks run by the CYP2C9 poor metabolizer.

[10] = system: peripheral lymphocyte counts; experiment: reduction and recovery of peripheral lymphocyte counts; format: in vivo
Experimental: (§5) Siponimod is a second generation S1 P receptor modulator that reduces peripheral lymphocyte counts approximately 4-6 hours (h) after the first dose. […] Siponimod's mode of action is believed to include S1P1-mediated prevention of effector lymphocyte recirculation from lymphatic tissue to sites of inflammation, such as the central nervous system (CNS). In addition, there may be direct beneficial effects in the CNS mediated by S1P1 and/or S1P5. […] Thus, siponimod may display additional beneficial activities in the CNS.

[11] = half-life and brain penetration of siponimod; conditions: in vivo
Experimental: as §5

[12] = randomized, placebo-controlled clinical study of siponimod in ischemic stroke, modified Rankin Scale; format: in vivo, human; conditions: two week treatment daily, 7 days i.v. with titration followed by 7 days p.o., 10 mg maintenance
Description: The clinical study investigates the initial efficacy and safety of siponimod administered on top of standard-of-care compared to placebo in patients with ischemic stroke). This is a randomized, doubled-blinded, placebo-controlled, parallel group study of siponimod on top of standard-of-care for ischemic stroke, consisting of 3 epochs: Screening/Baseline, Treatment, and Follow-Up (see FIG. 1).
These patients continue to be followed for the remainder of the assessment schedule (Table 3). i.v. Dose Titration
The siponimod i.v. dosing regimen is as follows: • Day 1: 0.25 mg over 6 hours (×2), then 0.5 mg over 6 hours, then 0.75 mg over 6 hours for a total Day 1 dose of 1.75 mg • Day 2: 1.25 mg over 6 hours, then 2 mg over 6 hours, then 2.5 mg over 6 hours (×2) for a total Day 2 dose of 8.25 mg • Days 3 through Day 7: 2.5 mg over 6 hours (×4) for a total daily dose of 10 mg. • If patient can swallow then the administration from Day 8 to Day 14 is oral.
The modified Rankin Scale (mRS), is a widely-used, clinician-assessed instrument, and is considered the current standard assessment for stroke outcomes by most Health Authorities. It consists of 6 grades of disability, higher scores indicating more severe disability (0=asymptomatic, 6=dead).
The mRS score at 90 days after ischemic stroke is the primary endpoint for measuring siponimod efficacy in this study. […]

[13] = in vivo, iv
Description: as §3

CYP2C9, CYP3A4 = conditions: humans; cited from earlier work

CCc1cc(/C(C)=N/OCc2ccc(C3CCCCC3)c(C(F)(F)F)c2)ccc1CN1CC(C(=O)O)C1 [siponimod, 1-{4-[(1E)-N-{[4-cyclohexyl-3-(trifluoromethyl)benzyl]oxy}ethanimidoyl]-2-ethylbenzyl}-3-azetidine carboxylic acid]
safety and tolerability of the 25 mg single dose ([1]; 25 mg single dose): favorable safety and tolerability profile | single maximum tolerated dose (single MTD) ([1]; single dose): 25 mg | acute ALC response on Day 1 of treatment [2]: dose-dependent decline of ALC | adverse events at the maximum investigated multiple dose [3]: symptomatic bradycardia as the only relevant adverse event | reduction in heart rate vs. placebo ([4]; Day 1, either titration regimen): no statistically significant reduction in heart rate vs. placebo | reduction in HR ([4]; Days 3 to 7, DT 1# and DT 2#): minor reductions in HR | heart rates versus placebo ([4]; by Day 9 until Day 12, both titration regimens): comparable to placebo | bradycardia or AV conduction effects ([4]; dose titration regimens DT 1# and DT 2#, 0.25 mg to 10 mg, 12 days, healthy subjects): Neither DT 1# nor DT 2# resulted in clinically significant bradycardia or AV conduction effects | heart rates versus placebo ([4]; non-titration regimen, 10 mg fixed dose once daily): considerable separation from placebo throughout the study | bradyarrhythmia at the starting dose ([4]; starting dose 0.25 mg of the DT regimens): not associated with bradyarrhythmia | MRI-based efficacy and safety of the dose range ([5]; 1.25 mg to 2 mg dose range orally once daily): close to maximal efficacy, with a good safety profile | MRI-based efficacy compared to 2 mg ([5]; 10 mg orally once daily): little additional efficacy compared to 2 mg | safety profile ([5]; 10 mg orally once daily): worse safety profile | dose and time dependence of pharmacokinetics ([6]; human, in vivo): dose linear and time-independent pharmacokinetics | bioavailability ([6]; human, in vivo, 0.25 mg, oral versus i.v., healthy subjects, read-out: oral bioavailability F %): 84% | half-life ([6]; human, in vivo, other: oral and intravenous (range over both routes), oral and i.v. route, read-out: terminal T1/2): 27 to 33 h | median i.v. Tmax ([6]; i.v. infusion over 3 hours and 24 hours): at the end of the 3 hour and 24 hour infusions | geometric mean oral Cmax lower than mean i.v. Cmax ([6]; oral versus i.v.): ~48% | magnitude of PD (ALC) effects % Emax, i.v. versus oral [7]: comparable to the effects after oral doses at the same dose levels | cardiac safety profile of i.v. infusions [8]: excellent cardiac safety profile | Cmax in poor versus extensive metabolizers ([9]; CYP2C9 poor metabolizers): only slightly greater | Tmax in poor versus extensive metabolizers ([9]; CYP2C9 poor metabolizers): comparable in poor and extensive metabolizers | AUC compared with reference AUC of extensive metabolizers (CYP2C9*1*1) ([9]; first value printed (first-named genotype CYP2C9*2*3)): approximately 2 fold | AUC compared with reference AUC of extensive metabolizers (CYP2C9*1*1) ([9]; second value printed (second-named genotype)): ~4 fold | time to reduction of peripheral lymphocyte counts after the first dose ([10]; after the first dose): 4 to 6 h | recovery of the baseline lymphocyte counts ([10]; after treatment withdrawal): within a week after treatment withdrawal | crossing of the blood brain barrier [11]: readily crosses the blood brain barrier | global functioning measured by modified Rankin Scale (mRS) score on Day 90 after ischemic stroke, compared to placebo [12]: improved global functioning | cardiovascular effects in i.v. cardiovascular safety studies [13]: Cmax-related transient cardiovascular effects | enzymes eliminating siponimod by metabolism (CYP2C9, CYP3A4): mainly by CYP2C9, followed by CYP3A4
